Results from patent US11485713B2, “Androgen receptor modulators and methods for their use” (ESSA Pharma, Inc., priority 2018, dated 2022).
pIC50: −log10 of the molar value.

Legend:
LNCaP ARE-Luc = test: Luciferase assay in LNCaP cell lysates (LNCaP ARE-Luc); assay type: cell-based; settings: Homo sapiens, Firefly Luciferase Assay System, read-out: LNCaP ARE-Luc % inhibition IC50 Ranges
Experimental: Lysates were thawed on ice then collected into V-bottom 96-well tissue culture plates. Lysates were centrifuged at 4° C. for 5 minutes at 4000 rpm. To measure luminescence of LNCaP cell lysates the Firefly Luciferase Assay System (Promega) was employed, according to manufacturer's protocol. Relative luminescence units (RLU) in cell lysates were detected for 10 seconds using Promega GoMax-Multi Detection Luminometer (Promega).
Statistical analyses were performed using GraphPad Prism (Version 6.01 for Windows; La Jolla, Calif., USA). Comparisons between treatment and control groups were compared using Two-Way ANOVA with post-hoc Dunnett's and Tukey's tests. Differences were considered statistically significant at P values less than 0.05. Densitometric quantification of relative AR levels was determined by Image.

[1] = Microsomal stability assay, MLM; assay type: in vitro ADME; settings: mouse, pH 7.4, 1 μM test compound, 0.5 mg/mL liver microsomes protein, 37° C., 0-60 min, read-out: MLM +/− NADPH: Clint (μL/min/mg protein)
Text: (§1) Microsomal Stability Assay: Microsomal stability assay is a widely used in vitro model to characterize the metabolic conversion by phase I enzymes, such as cytochrome P450 (CYP) enzymes. Since metabolism is known to be highly variable in different species, microsomal stability assay is commonly run in multiple species. Metabolic stability of testing compound can be evaluated using human, rat, mouse, or other animal liver or intestine microsomes to predict intrinsic clearance.
(§2) The assay was carried out in 96-well microtiter plates at 37° C. Reaction mixtures (25 μL) contained a final concentration of 1 μM test compound, 0.5 mg/mL liver microsomes protein, and 1 mM NADPH and/or 1 mM UDPGA (with alamethicin) in 100 mM potassium phosphate, pH 7.4 buffer with 3 mM MgCl2. The incubation was done with N=1, but duplicate incubation at each time point can be prepared if necessary. At each of the time points (for example, 0, 15, 30, and 60 minutes), 150 μL of quench solution (100% acetonitrile with 0.1% formic acid) with internal standard was transferred to each well. Besides the zero minute controls, mixtures containing the same components except the NADPH can also be prepared as the negative control. Verapamil was included as a positive control to verify assay performance. Plates were sealed, vortexed, and centrifuged at 4° C. for 15 minutes at 4000 rpm. The supernatant is transferred to fresh plates for LC/MS/MS analysis.
(§3) Summarized conditions: [Compound]=1 μM, [LM]=0.5 mg/mL, [NADPH]=1 mM and/or [UDPGA]=1 mM, Buffer=100 mM Potassium Phosphate, pH 7.4 with 3 mM MgCl2, Time=0, 15, 30, and 60 min, and Temperature=37° C.
(§4) All samples were analyzed on LC/MS/MS using an AB Sciex API 4000 instrument, coupled to a Shimadzu LC-20AD LC Pump system. Analytical samples were separated using a Waters Atlantis T3 dC18 reverse phase HPLC column (20 mm×2.1 mm) at a flow rate of 0.5 mL/min. The mobile phase consisted of 0.1% formic acid in water (solvent A) and 0.1% formic acid in 100% acetonitrile (solvent B).
(§5) The extent of metabolism is calculated as the disappearance of the test compound, compared to the 0-min time incubation. Initial rates are calculated for the compound concentration and used to determine half-life (t½) values and subsequently, the intrinsic clearance (Clint). Clint=(0.693)(1/t½ (min))(g of liver/kg of body weight)(mL incubation/mg of microsomal protein)(45 mg of microsomal protein/g of liver weight)

[2] = Microsomal stability assay, HLM; assay type: in vitro ADME; settings: human, pH 7.4, 1 μM test compound, 0.5 mg/mL liver microsomes protein, 37° C., 0-60 min, read-out: HLM +/− NADPH: Clint (μL/min/mg protein)
Text: as §1, §2, §3, §4, §5

[3] = Hepatocyte stability assay, MH; assay type: in vitro ADME; settings: mouse, cryopreserved hepatocytes, 1 μM test compound, 0.5 million cells/mL hepatocytes, 37° C., 0-180 min, read-out: MH +/− NADPH: Clint (μL/min/million cells)
Text: Hepatocyte Stability Assay: The […] of in vitro intrinsic clearance (Clint) for drug candidates in the early discovery stage is common practice in the pharmaceutical industry. The Clint values of drug candidates can help to confirm whether metabolism is the main clearance pathway when it is compared with the total body clearance in vivo. Hepatocytes are among the routinely used in vitro systems for measuring clearance. Hepatocytes have been reported to retain most of the phase I and phase II metabolic activities, and therefore, it is a useful tool to estimate the intrinsic clearance for potential drug candidates.
Metabolic stability of testing compound were be evaluated using human and mouse hepatocytes and can also be use rat, mouse, or other animal hepatocytes to predict intrinsic clearance. Cryopreserved hepatocytes were removed from the liquid nitrogen tank and thawed in a 37° C. water bath. As soon as the cells pulled away from the vial wall, they were decanted into 48 ml of warm HT medium. Cells were centrifuged for four minutes at 420 rpm (50 g). After removing the supernatant, pellet was re-suspended in warm DMEM medium. Cell density was counted by a hemacytometer.
The assay was carried out in 96-well microtiter plates. Compounds were incubated for 0, 60, 120, and 180 minutes at 37° C. with hepatocytes. Reaction mixtures (50 μL) contained a final concentration of 1 μM test compound, 0.5 million cells/mL hepatocytes in the DMEM medium. At each of the time points (for example, 0, 1, 2, and 3 hours), 200 μL of quench solution (100% acetonitrile with 0.1% formic acid) with internal standard was transferred to each well. Midazolam was included as a positive control to verify assay performance. Plates were sealed and centrifuged at 4° C. for 15 minutes at 4000 rpm. The supernatant is transferred to fresh plates for LC/MS/MS analysis.
Summarized conditions (customizable): [Compound]=[…], Positive control: midazolam and/or naloxone, [Hepatocyte]=0.5 million cells/Ml, time=0, 60, 120, and 180 m t=37° C.
as §4, with “ABSciex” for “AB Sciex”
The extent of metabolism was calculated as the disappearance of the test compound, compared to the 0-min control reaction incubations. Initial rates were calculated for the compound concentration and used to determine t½ values and subsequently, the intrinsic clearance, Clint. Clint=(0.693)(1/t½ (min))(mL incubation/million cells)

Row | Structure (SMILES) | pIC50 (LNCaP ARE-Luc) | microsomal CLint at 1 μM [1] | microsomal CLint at 1 μM [2] | hepatocyte CLint at 1 μM [3]
1 | CC(C)(c1ccc(OCC(=O)CNS(C)(=O)=O)cc1)c1cc(Cl)c(OC[C@H](O)CCl)c(Cl)c1 [A51(S), (S)—N-(3-(4-(2-(3,5-dichloro-4-(3-chloro-2-hydroxypropoxy)phenyl)propan-2-yl)phenoxy)-2-oxopropyl)methanesulfonamide] | > 7.00 |  | ≥ 48 µL/min/mg | ≥ 18 µL/min/1e6 cells
2 | CC(C)(c1ccc(OCC(=O)CNS(C)(=O)=O)cc1)c1cc(Cl)c(OCCCCl)c(Cl)c1 [Compound A31, N-(3-(4-(2-(3,5-dichloro-4-(3-chloropropoxy)phenyl)propan-2-yl)phenoxy)-2-oxopropyl)methanesulfonamide] | > 7.00 |  | ≥ 48 µL/min/mg | ≥ 18 µL/min/1e6 cells
3 | CC(C)(c1ccc(OCC(=O)CS(C)(=O)=O)cc1)c1cc(Cl)c(OCC(O)CCl)c(Cl)c1 (stereo not drawn) [Compound A54] |  | ≥ 48 µL/min/mg | ≥ 48 µL/min/mg | ≥ 18 µL/min/1e6 cells
4 | CC(C)(c1ccc(OCC(=O)CNS(C)(=O)=O)cc1)c1cc(Cl)c(OCCCBr)c(Cl)c1 [Compound A61] | 6.60 to 7.00 | ≥ 48 µL/min/mg | ≥ 48 µL/min/mg | ≥ 18 µL/min/1e6 cells
5 | COCC(=O)COc1ccc(C(C)(C)c2cc(Cl)c(OCC(C)(O)CCl)c(Cl)c2)cc1 (stereo not drawn) [Compound A60] |  | ≥ 48 µL/min/mg | ≥ 48 µL/min/mg | ≥ 18 µL/min/1e6 cells
6 | COCC(=O)COc1ccc(C(F)(F)c2cc(Cl)c(OCC(O)CCl)c(Cl)c2)cc1 (stereo not drawn) [Compound A58] |  | ≥ 48 µL/min/mg | ≥ 48 µL/min/mg | ≥ 18 µL/min/1e6 cells
7 | COCC(=O)COc1ccc(Cc2cc(Cl)c(OCC(O)CCl)c(Cl)c2)cc1 (stereo not drawn) [Compound A57] |  | ≥ 48 µL/min/mg | ≥ 48 µL/min/mg | ≥ 18 µL/min/1e6 cells

Now from value to molecule:

Row | pIC50 (LNCaP ARE-Luc) | microsomal CLint at 1 μM [1] | microsomal CLint at 1 μM [2] | hepatocyte CLint at 1 μM [3] | Structure (SMILES)
8 | ≤ 6.60 | ≥ 48 µL/min/mg | ≥ 48 µL/min/mg | ≥ 18 µL/min/1e6 cells | COCC(=O)COc1ccc(C(C)(C)c2cc(Cl)c(OC[C@H](O)CCl)c(Cl)c2)cc1 [A56(S), (S)-1-(4-(2-(3,5-dichloro-4-(3-chloro-2-hydroxypropoxy)phenyl)propan-2-yl)phenoxy)-3-methoxypropan-2-one]
9 |  | ≥ 48 µL/min/mg | ≥ 48 µL/min/mg | ≥ 18 µL/min/1e6 cells | COCC(=O)COc1ccc(C(C)(C)c2cc(Cl)c(OCCCCl)c(Cl)c2)cc1 [Compound A59]
10 | ≤ 6.60 | ≥ 48 µL/min/mg | ≥ 48 µL/min/mg | ≥ 18 µL/min/1e6 cells | CC(C)(c1ccc(OCC(=O)CS(C)(=O)=O)cc1)c1cc(Cl)c(OCCCCl)c(Cl)c1 [Compound A55, 1-(4-(2-(3,5-dichloro-4-(3-chloropropoxy)phenyl)propan-2-yl)phenoxy)-3-(methylsulfonyl)propan-2-one]
